Reference: article PMC5053523, “In Vitro Antibacterial Activity of Rhodanine Derivatives against Pathogenic Clinical Isolates” (PLoS ONE, 2016)
Converted amounts (≈) assume the structure as drawn. Like-named read-outs stand apart in the source and are kept apart here.

Legend:
Candida albicans = assay: MIC against Candida albicans; format: cell-based; conditions: table prints none
Clostridium difficile = assay: MIC against Clostridium difficile, anaerobic broth dilution; format: cell-based; conditions: Clostridioides difficile
Experimental: Clinical isolates of C. difficile were cultured on anaerobic blood agar and incubated anaerobically using container gas pack system at 37° C for 48 hours. The colonies were then suspended in pre-reduced phosphate buffered saline (PBS) and adjusted to 0.5 McFarland standard then diluted 1:300 in pre-reduced Supplemented Brain Heart Infusion broth. The bacterial suspension was then transferred to each well of 96-well plates, the drugs were added to the first row of wells in the required concentrations and serially diluted along the plates. The plates were incubated again anaerobically using container gas pack system at 37° C for 48 hours. The (MIC) recorded was the lowest concentration of the drug showing no visible growth of the bacteria.

MRSA USA300 = assay: MIC against MRSA USA300 with and without 4% human serum albumin; format: cell-based, Staphylococcus aureus; conditions: for antibacterial activity in the presence or absence of HSA: MRSA USA300; for MIC: Staphylococcus aureus, read-out: MIC against MRSA USA300
Experimental: The minimum inhibitory concentration (MIC) and the minimum bactericidal concentration (MBC) of rhodanine compounds 1 to 7 were determined against various Gram-positive and Gram-negative pathogens (S1 Table) following the guidelines of the Clinical and Laboratory Standards Institute (CLSI)[4]. The broth microdilution technique was used, followed by subculturing on agar plates that were rhodanine—free. […] The MICs reported represent the lowest concentration of each compound necessary to inhibit bacterial growth and the MBCs represent the lowest concentration required to reduce the initial bacterial inoculum by ≥ 99.9%.
The antimicrobial activity of rhodanine compounds in the presence of 4% human serum albumin (HSA) was tested against MRSA USA300. The MICs of rhodanine compounds and control antibiotics (vancomycin and daptomycin) were tested as described in the methods above using tryptic soy broth spiked with 4% HSA. We also synthesized and tested three more compounds, ethyl ester and amide of rhodanine 2 (Rh 8 and Rh 10, respectively) and ethyl ester of rhodanine 3 (Rh 9) to determine the influence of a carboxyl group modification toward anti-MRSA activity and human serum albumin (HSA) binding.

Pseudomonas aeruginosa [1] = assay: MIC with/without sub-MIC colistin, Pseudomonas aeruginosa; format: cell-based; conditions: Pseudomonas aeruginosa, ATCC921
Experimental: (§1) The MIC of the rhodanines and control antibiotics, in the presence of a sub-inhibitory concentration of colistin or polymixin B nonapeptide (PMBN), against Gram-negative bacteria was evaluated as described before. The antibacterial activity of the rhodanines was further investigated against E. coli SM1411Δ acrAB, a strain that is deficient in the multidrug-resistant AcrAB efflux pump, as described before.

Salmonella Typhimurium = assay: MIC with/without sub-MIC colistin, Salmonella Typhimurium; format: cell-based; conditions: Salmonella Typhimurium ATCC 700720
Experimental: as §1

Klebsiella pneumoniae [2] = assay: MIC with/without sub-MIC colistin, Klebsiella pneumoniae; format: cell-based; conditions: Klebsiella pneumoniae ATCC BAA 2146
Experimental: as §1

Escherichia coli O157:H7 [3] = assay: MIC with/without sub-MIC colistin, Escherichia coli O157:H7; format: cell-based
Experimental: as §1

Acinetobacter baumannii [4] = assay: MIC with/without sub-MIC colistin, Acinetobacter baumannii; format: cell-based
Experimental: as §1

Klebsiella pneumoniae [5] = assay: MIC with/without PMBN, Klebsiella pneumoniae; format: cell-based
Experimental: as §1

Escherichia coli O157:H7 [6] = assay: MIC with/without PMBN, Escherichia coli O157:H7; format: cell-based
Experimental: as §1

Acinetobacter baumannii [7] = assay: MIC with/without PMBN, Acinetobacter baumannii; format: cell-based
Experimental: as §1

Pseudomonas aeruginosa [8] = assay: MIC with/without PMBN, Pseudomonas aeruginosa; format: cell-based; conditions: Pseudomonas aeruginosa, ATCC9721
Experimental: as §1

[9] = ATCC10231, C. albicans ATCC 10231, unit from abstract, read-out: MIC
[10] = ATCC10231, C. albicans ATCC 10231, unit from abstract, read-out: MIC (second value after the slash)
[11] = C. albicans NR 29434, unit from abstract, read-out: MIC
[12] = C. albicans NR 29434, unit from abstract, read-out: MIC (second value after the slash)
[13] = C. albicans NR 29435, unit from abstract, read-out: MIC
[14] = C. albicans NR 29435, unit from abstract, read-out: MIC (second value after the slash)
[15] = C. albicans NR29437, unit from abstract, read-out: MIC
[16] = C. albicans NR29438, unit from abstract, read-out: MIC
[17] = C. albicans NR29438, unit from abstract, read-out: MIC (second value after the slash)
[18] = C. albicans NR 29446, unit from abstract, read-out: MIC
[19] = C. albicans NR 29448, unit from abstract, read-out: MIC
[20] = C. albicans NR 29449, unit from abstract, read-out: MIC
[21] = C. albicans NR 29449, unit from abstract, read-out: MIC (second value after the slash)
[22] = C. albicans NR 29453, unit from abstract, read-out: MIC
[23] = C. albicans NR 29453, unit from abstract, read-out: MIC (second value after the slash)
[24] = C. albicans NR 294436, unit from abstract, read-out: MIC
[25] = C. albicans NR 294436, unit from abstract, read-out: MIC (second value after the slash)
[26] = Escherichia coli O157:H7 ATCC 35150
[27] = Escherichia coli O157:H7 ATCC 700728
[28] = Acinetobacter baumannii ATCC BAA747
[29] = Acinetobacter baumannii ATCC BAA19606

## C[C@@H]1[C@H](O)[C@@H](C)/C=C/C=C/C=C/C=C/C=C/C=C/C=C/[C@H](O[C@@H]2O[C@H](C)[C@@H](O)[C@H](N)[C@@H]2O)C[C@@H]2O[C@](O)(C[C@@H](O)C[C@@H](O)[C@H](O)CC[C@@H](O)C[C@@H](O)CC(=O)O[C@H]1C)C[C@H](O)[C@H]2C(=O)O [Amphotericin B, amphotericin B, reference compound]
Candida albicans; [9]
  MIC: 1 µM (≈ 0.924 µg/mL)
Candida albicans; [10]
  MIC: 1 µM (≈ 0.924 µg/mL)
Candida albicans; [11]
  MIC: 2 µM (≈ 1.85 µg/mL)
Candida albicans; [12]
  MIC: 2 µM (≈ 1.85 µg/mL)
Candida albicans; [13]
  MIC: 1 µM (≈ 0.924 µg/mL)
Candida albicans; [14]
  MIC: 2 µM (≈ 1.85 µg/mL)
Candida albicans; [15]
  MIC: 2 µM (≈ 1.85 µg/mL)
Candida albicans; [16]
  MIC: 1 µM (≈ 0.924 µg/mL)
Candida albicans; [17]
  MIC: 4 µM (≈ 3.7 µg/mL)
Candida albicans; [18]
  MIC: 1 µM (≈ 0.924 µg/mL)
Candida albicans; C. albicans NR 29446, unit from abstract, read-out: MIC (second value after the slash)
  MIC: 1 µM (≈ 0.924 µg/mL)
Candida albicans; [19]
  MIC: 2 µM (≈ 1.85 µg/mL)
Candida albicans; C. albicans NR 29448, unit from abstract, read-out: MIC (second value after the slash)
  MIC: 2 µM (≈ 1.85 µg/mL)
Candida albicans; [20]
  MIC: 1 µM (≈ 0.924 µg/mL)
Candida albicans; [21]
  MIC: 2 µM (≈ 1.85 µg/mL)
Candida albicans; [22]
  MIC: 1 µM (≈ 0.924 µg/mL)
Candida albicans; [23]
  MIC: 2 µM (≈ 1.85 µg/mL)
Candida albicans; [24]
  MIC: 2 µM (≈ 1.85 µg/mL)
Candida albicans; [25]
  MIC: 2 µM (≈ 1.85 µg/mL)

## OC(Cn1cncn1)(Cn1cncn1)c1ccc(F)cc1F [Fluconazole, fluconazole, reference compound]
Candida albicans; [9]
  MIC: < 0.5 µM
Candida albicans; [10]
  MIC: 1 µM (≈ 0.306 µg/mL)
Candida albicans; [11]
  MIC: < 0.5 µM
Candida albicans; [12]
  MIC: 1 µM (≈ 0.306 µg/mL)
Candida albicans; [13]
  MIC: < 0.5 µM
Candida albicans; [14]
  MIC: > 64 µM
Candida albicans; [15]
  MIC: 1 µM (≈ 0.306 µg/mL)
Candida albicans; [16]
  MIC: < 0.5 µM
Candida albicans; [17]
  MIC: > 64 µM
Candida albicans; [18]
  MIC: > 64 µM
Candida albicans; [19]
  MIC: > 64 µM
Candida albicans; [20]
  MIC: < 0.5 µM
Candida albicans; [21]
  MIC: > 64 µM
Candida albicans; [22]
  MIC: < 0.5 µM
Candida albicans; [23]
  MIC: < 0.5 µM
Candida albicans; [24]
  MIC: < 0.5 µM
Candida albicans; [25]
  MIC: > 64 µM

## Cc1ncc([N+](=O)[O-])n1CCO [Metronidazole, reference compound]
Clostridium difficile; C. difficile HM-88
  MIC: 0.25 µM (≈ 0.0428 µg/mL)
Clostridium difficile; C. difficile HM-745
  MIC: 0.5 µM (≈ 0.0856 µg/mL)
Clostridium difficile; C. difficile HM-746
  MIC: 0.125 µM (≈ 0.0214 µg/mL)
Clostridium difficile; C. difficile Isolate-1 NR-13427
  MIC: 0.25 µM (≈ 0.0428 µg/mL)
Clostridium difficile; C. difficile Toxigenic Strain P8 NR-32888
  MIC: 1 µM (≈ 0.171 µg/mL)

## CCOC(=O)[C@H](Cc1ccccc1)N1C(=O)/C(=C/c2cccc(-c3ccc(Cl)c(Cl)c3)c2)SC1=S [Rh 8, Ethyl (L,Z)-2-(5-((3',4'-dichloro-[1,1'-biphenyl]-3-yl)methylene)-4-oxo-2-thioxothiazolidin-3-yl)-3-phenylpropanoate]
MRSA USA300
  antibacterial activity in the presence or absence of HSA: not active
MRSA USA300; 24 h, Media TSB + 4% HSA
  MIC: > 64 µM
MRSA USA300; Media TSB
  MIC: > 64 µM

## CCOC(=O)[C@H](Cc1ccccc1)N1C(=O)/C(=C/c2cccc(Cc3ccc(Cl)c(Cl)c3)c2)SC1=S [Rh 9, Ethyl (L,Z)-2-(5-(3-(3,4-dichlorobenzyl)benzylidene)-4-oxo-2-thioxothiazolidin-3-yl)-3-phenylpropanoate]
MRSA USA300
  antibacterial activity in the presence or absence of HSA: not active
MRSA USA300; 24 h, Media TSB + 4% HSA
  MIC: > 64 µM
MRSA USA300; Media TSB
  MIC: > 64 µM

## NC(=O)[C@H](Cc1ccccc1)N1C(=O)/C(=C/c2cccc(-c3ccc(Cl)c(Cl)c3)c2)SC1=S [Rh 10, (L,Z)-2-(5-((3',4'-dichloro-[1,1'-biphenyl]-3-yl)methylene)-4-oxo-2-thioxothiazolidin-3-yl)-3-phenylpropanamide]
MRSA USA300
  antibacterial activity in the presence or absence of HSA: not active
MRSA USA300; 24 h, Media TSB + 4% HSA
  MIC: > 64 µM
MRSA USA300; Media TSB
  MIC: > 64 µM

## colistin [reference compound]
Pseudomonas aeruginosa [1]
  MIC of colistin: 1 µg/mL
Salmonella Typhimurium
  MIC of colistin: 1 µg/mL
Klebsiella pneumoniae [2]
  MIC of colistin: 0.5 µg/mL
Escherichia coli O157:H7 [3]; [26]
  MIC of colistin: 0.125 µg/mL
Escherichia coli O157:H7 [3]; [27]
  MIC of colistin: 0.0625 µg/mL
Acinetobacter baumannii [4]; [28]
  MIC of colistin: 0.25 µg/mL
Acinetobacter baumannii [4]; [29]
  MIC of colistin: 0.5 µg/mL

## polymixin B nonapeptide [PMBN, reference compound]
Klebsiella pneumoniae [5]; Klebsiella pneumoniae ATCC BAA 1706
  MIC of PMBN: >128 µg/mL
Klebsiella pneumoniae [5]; Klebsiella pneumoniae ATCC BAA 2146
  MIC of PMBN: >128 µg/mL
Escherichia coli O157:H7 [6]; [26]
  MIC of PMBN: >128 µg/mL
Escherichia coli O157:H7 [6]; [27]
  MIC of PMBN: >128 µg/mL
Acinetobacter baumannii [7]; [28]
  MIC of PMBN: >128 µg/mL
Acinetobacter baumannii [7]; [29]
  MIC of PMBN: >128 µg/mL
Pseudomonas aeruginosa [8]
  MIC of PMBN: >128 µg/mL
